Literature values in US12031126B2, “Methods and compositions for simultaneous editing of both strands of a target double-stranded nucleotide sequence” (The Broad Institute, Inc., priority 2020, dated 2024).

How the values were obtained:
FKBP12 F36V = FKBP12 F36V (Homo sapiens, UniProt P62942, F37V); details: cited from earlier work
FKBP12 = FKBP12 (Homo sapiens, UniProt P62942); details: cited from earlier work
Chain of FKBP12 (P62942 whole entry): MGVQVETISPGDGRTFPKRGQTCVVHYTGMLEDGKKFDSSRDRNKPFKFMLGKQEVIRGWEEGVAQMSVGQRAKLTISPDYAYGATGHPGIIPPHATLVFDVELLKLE

Chain of FKBP12 F36V (P62942 whole entry F37V): as the sequence (P62942 whole entry) above, with F37V counted along it

SMILES: CC[C@H](C(=O)N1CCCC[C@H]1C(=O)O[C@H](CCc1ccc(OC)c(OC)c1)c1cccc(OCC(=O)O)c1)c1cc(OC)c(OC)c(OC)c1 [AP1867]
- Kd (FKBP12 F36V): 0.094 nM
- Kd (FKBP12): 67 nM
